Experimental data as given in ChEMBL document CHEMBL4828772, “Imidazo[1,2-b]pyridazines as IL-17A Inhibitors for Treating Psoriasis, Rheumatoid Arthritis, and Multiple Sclerosis” (ACS Med Chem Lett, 2021).

Test: Inhibition of C-terminal Avi/His-tagged IL-17A (1 to 155 residues) (unknown origin) expressed in baculovirus infected insect cells binding with FLAG-tagged/Thrombin cleavage site fused IL-17RA (1 to317 residues) N206D/N256D mutant (unknown origin) expressed in baculovirus infected insect cells measured after 2 hrs by AlphaLISA method
Design: species or system Homo sapiens

| SMILES | IC50 [nM] |
| --- | --- |
| COC[C@H](c1cnn2cc([C@@H](NC(=O)c3nonc3C(F)F)C3CCC(F)(F)CC3)nc2c1)N1C[C@@H](C(F)(F)F)NC1=O | < 9.45 |
| O=C(N[C@H](c1cn2ncc(CN3C[C@@H](C(F)(F)F)NC3=O)cc2n1)C1CCC(F)(F)CC1)c1nonc1C1CC1 | < 9.45 |
| COC[C@H](c1cnn2cc([C@@H](NC(=O)c3conc3C3CC3)C3CCC(F)(F)CC3)nc2c1)N1C[C@@H](C(F)(F)F)NC1=O | < 9.45 |
| O=C(N[C@H](c1cn2ncc(CN3C[C@@H](C(F)(F)F)NC3=O)cc2n1)C1CCC(F)(F)CC1)c1nonc1C(F)(F)F | < 9.45 |
| CC(C)c1nonc1C(=O)N[C@H](c1cn2ncc(CN3C[C@@H](C(F)(F)F)NC3=O)cc2n1)C1CCC(F)(F)CC1 | < 9.45 |
| COC[C@H](c1cnn2cc([C@@H](NC(=O)c3nonc3C(F)(F)F)C3CCC(F)(F)CC3)nc2c1)N1C[C@@H](C(F)(F)F)NC1=O | < 9.45 |
